Common to all, as to format: cell-based
For one test, the target named is L858R EGFR (Homo sapiens (Human), UniProt P00533, L858R). Nature of the test: Immunoblot of EGFR degradation in H3255 cells. To be noted: 24 hours. As to the method: (§1) Cells were treated with the indicated concentrations of PROTAC or corresponding inhibiting diastereomer for the specified time and then harvested in lysis buffer (25 mM Tris.HCl pH 7.5 with 1% NP-40 and 0.25% deoxycholate, supplemented with 10 mM sodium pyrophosphate, 20 mM ß-glycerophosphate, 10 mM sodium fluoride, 1 mM sodium orthovanadate, 0.1 mM phenylarsine oxide, 10 μg/ml leupeptin, 10 μg/ml pepstatin A, 30 μg/ml bestatin, 0.3 trypsin inhibitor units/ml aprotinin and 1 mM PMSF). Following centrifugation at 16,000×g for 10 min at 4° C. to pellet insoluble materials, the protein concentrations of the supernatants were quantitated by BCA assay (Thermo Fisher Scientific). Protein samples were resolved by 8% SDS-PAGE, electrophoretically transferred to nitrocellulose and probed with the antibodies listed above. Immunoblots were developed using enhanced chemiluminescence and visualized using a Bio-Rad Chemi-Doc MP Imaging System and quantitated with Image Lab v.5.2.1 software (Bio-Rad Laboratories).
On the technique in general: In western blotting, separated proteins are transferred to a membrane and probed.

A further test deals with WT EGFR (Homo sapiens (Human), UniProt P00533). Put plainly: Immunoblot of EGFR degradation in OVCAR8 cells. To be noted: 24 hours. As to the method:
as §1

The target of a further test is exon-19 deletion EGFR (Homo sapiens (Human), UniProt P00533, DEL746-750). Nature of the test: Immunoblot of EGFR degradation in HCC827 cells. To be noted: 24 hours. The procedure: as §1
In another test the test system is AKT phosphorylation. Nature of the test: HGF-driven AKT phosphorylation in MDA-MB-231 cells (immunoblot). To be noted: HGF pulse. The procedure:
as §1

The subject of a further test is GTL16 cells. Put plainly: Cell-proliferation assay in GTL16 cells. To be noted: Homo sapiens, GTL 16. The procedure:
Cell Proliferation Assays
Following PROTAC or diastereomer treatment of cells as indicated, culture medium was supplemented with 330 μg/ml MTS (Promega Corp., Madison, Wis.) and 25 μM phenazine methosulfate (Sigma, St. Louis, Mo.) and incubated at 37° C. Mitochondrial reduction of MTS to the formazan derivative was monitored by measuring the medium's absorbance at 490 nm using a Wallac Victor^2 platereader (Perkin-Elmer Life Sciences, Waltham, Mass.). Data analysis and statistics performed using Prism v7.0 software (GraphPad Software).

We go through two molecules from patent US10994015B2, “EGFR proteolysis targeting chimeric molecules and associated methods of use” (Arvinas Operations, Inc., priority 2016, dated 2021).

pIC50: −log10 of the molar value.

L858R EGFR, sequence (P00533 25-1210 L858R): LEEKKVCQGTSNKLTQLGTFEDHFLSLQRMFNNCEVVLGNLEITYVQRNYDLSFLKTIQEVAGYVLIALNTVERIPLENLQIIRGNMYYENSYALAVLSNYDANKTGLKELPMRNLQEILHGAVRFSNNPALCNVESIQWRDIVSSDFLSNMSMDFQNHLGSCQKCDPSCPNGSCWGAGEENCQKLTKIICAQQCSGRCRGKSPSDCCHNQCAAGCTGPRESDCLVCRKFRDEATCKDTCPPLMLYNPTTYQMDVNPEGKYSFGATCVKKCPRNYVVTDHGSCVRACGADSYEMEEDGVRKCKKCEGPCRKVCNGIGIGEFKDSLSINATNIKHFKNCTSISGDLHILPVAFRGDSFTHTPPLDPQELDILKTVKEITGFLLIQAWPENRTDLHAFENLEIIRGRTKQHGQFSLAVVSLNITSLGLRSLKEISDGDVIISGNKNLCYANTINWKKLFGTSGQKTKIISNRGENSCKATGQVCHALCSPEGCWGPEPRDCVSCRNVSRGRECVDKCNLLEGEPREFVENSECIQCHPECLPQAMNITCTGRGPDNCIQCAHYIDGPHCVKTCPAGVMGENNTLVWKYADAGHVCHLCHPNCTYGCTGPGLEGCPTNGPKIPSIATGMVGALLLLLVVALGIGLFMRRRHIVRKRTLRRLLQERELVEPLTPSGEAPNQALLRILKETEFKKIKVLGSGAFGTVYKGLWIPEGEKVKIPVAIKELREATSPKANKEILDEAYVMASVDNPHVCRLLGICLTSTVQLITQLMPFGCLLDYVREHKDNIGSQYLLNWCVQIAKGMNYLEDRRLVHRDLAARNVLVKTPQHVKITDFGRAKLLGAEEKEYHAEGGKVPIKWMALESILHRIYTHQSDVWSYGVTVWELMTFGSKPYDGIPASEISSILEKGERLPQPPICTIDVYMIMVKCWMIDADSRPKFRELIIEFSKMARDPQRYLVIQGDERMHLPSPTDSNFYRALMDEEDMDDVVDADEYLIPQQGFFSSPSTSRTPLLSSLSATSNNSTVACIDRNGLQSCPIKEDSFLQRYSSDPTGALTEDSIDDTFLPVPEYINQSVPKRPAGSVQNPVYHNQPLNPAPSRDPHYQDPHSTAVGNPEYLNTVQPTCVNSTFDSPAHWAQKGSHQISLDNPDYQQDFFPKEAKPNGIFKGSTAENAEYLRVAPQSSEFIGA
WT EGFR, sequence (P00533 25-1210): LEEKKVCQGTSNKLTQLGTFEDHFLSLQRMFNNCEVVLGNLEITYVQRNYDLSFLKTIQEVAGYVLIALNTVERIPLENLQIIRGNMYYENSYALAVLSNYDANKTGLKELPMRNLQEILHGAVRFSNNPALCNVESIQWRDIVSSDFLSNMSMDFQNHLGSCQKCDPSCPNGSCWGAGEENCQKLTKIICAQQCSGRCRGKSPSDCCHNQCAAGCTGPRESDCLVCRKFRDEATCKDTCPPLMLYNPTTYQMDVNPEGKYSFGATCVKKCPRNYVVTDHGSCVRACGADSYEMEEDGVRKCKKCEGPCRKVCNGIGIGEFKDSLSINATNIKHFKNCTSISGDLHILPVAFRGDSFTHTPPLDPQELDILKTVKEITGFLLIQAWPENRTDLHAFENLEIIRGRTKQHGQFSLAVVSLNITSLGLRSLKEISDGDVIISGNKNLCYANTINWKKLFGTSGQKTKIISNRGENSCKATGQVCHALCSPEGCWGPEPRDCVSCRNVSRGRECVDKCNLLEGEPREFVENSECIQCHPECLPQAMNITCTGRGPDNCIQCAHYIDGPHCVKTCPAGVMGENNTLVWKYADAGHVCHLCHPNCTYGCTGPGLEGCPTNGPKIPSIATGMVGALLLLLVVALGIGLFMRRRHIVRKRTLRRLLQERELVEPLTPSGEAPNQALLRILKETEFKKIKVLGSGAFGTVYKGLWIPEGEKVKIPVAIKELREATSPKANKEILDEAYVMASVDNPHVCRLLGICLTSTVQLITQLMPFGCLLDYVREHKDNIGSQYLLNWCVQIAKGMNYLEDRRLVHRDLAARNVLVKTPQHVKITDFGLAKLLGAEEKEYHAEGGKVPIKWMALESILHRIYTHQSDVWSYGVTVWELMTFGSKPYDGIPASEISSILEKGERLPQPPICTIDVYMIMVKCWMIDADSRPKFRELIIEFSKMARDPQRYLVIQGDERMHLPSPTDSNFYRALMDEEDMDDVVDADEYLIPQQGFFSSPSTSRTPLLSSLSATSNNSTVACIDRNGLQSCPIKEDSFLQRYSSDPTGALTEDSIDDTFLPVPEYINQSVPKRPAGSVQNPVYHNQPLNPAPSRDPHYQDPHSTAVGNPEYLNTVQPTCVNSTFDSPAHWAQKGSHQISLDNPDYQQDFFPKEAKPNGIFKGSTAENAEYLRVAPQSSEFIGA
exon-19 deletion EGFR, sequence (P00533 other isoform, or with tags, fused parts or gaps del 746-750): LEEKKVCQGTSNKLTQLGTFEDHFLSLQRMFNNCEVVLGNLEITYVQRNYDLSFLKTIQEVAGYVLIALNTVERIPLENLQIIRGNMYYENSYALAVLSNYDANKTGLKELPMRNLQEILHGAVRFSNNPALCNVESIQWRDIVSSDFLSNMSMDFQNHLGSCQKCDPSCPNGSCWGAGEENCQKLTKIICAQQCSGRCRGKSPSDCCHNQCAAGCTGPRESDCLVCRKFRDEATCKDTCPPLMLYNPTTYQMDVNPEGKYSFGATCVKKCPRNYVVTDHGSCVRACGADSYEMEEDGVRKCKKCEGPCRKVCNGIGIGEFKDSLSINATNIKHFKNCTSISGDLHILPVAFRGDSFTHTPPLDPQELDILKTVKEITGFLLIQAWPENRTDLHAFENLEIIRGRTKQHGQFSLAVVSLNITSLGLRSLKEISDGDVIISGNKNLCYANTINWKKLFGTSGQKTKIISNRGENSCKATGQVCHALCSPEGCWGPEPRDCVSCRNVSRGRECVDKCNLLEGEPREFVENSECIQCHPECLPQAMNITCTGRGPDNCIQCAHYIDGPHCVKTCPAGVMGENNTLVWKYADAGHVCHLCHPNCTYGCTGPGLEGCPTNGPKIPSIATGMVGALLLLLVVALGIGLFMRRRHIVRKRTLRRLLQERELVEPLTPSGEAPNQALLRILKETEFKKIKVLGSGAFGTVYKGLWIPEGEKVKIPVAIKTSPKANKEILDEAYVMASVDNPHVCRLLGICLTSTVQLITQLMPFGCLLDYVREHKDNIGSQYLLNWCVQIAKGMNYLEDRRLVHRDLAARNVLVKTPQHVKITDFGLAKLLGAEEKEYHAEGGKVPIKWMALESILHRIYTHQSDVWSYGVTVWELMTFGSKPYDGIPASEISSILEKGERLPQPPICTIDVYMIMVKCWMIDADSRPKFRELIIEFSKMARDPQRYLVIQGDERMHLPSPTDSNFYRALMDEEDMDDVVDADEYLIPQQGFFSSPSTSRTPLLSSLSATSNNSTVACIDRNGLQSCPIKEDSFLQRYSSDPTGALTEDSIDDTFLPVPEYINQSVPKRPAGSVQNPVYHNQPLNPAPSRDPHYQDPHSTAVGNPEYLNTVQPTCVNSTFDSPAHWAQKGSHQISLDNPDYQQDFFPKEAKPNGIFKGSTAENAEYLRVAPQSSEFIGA

As to `COc1cc2ncnc(Nc3ccc(F)c(Cl)c3)c2cc1OCCCCCOCCOCCC(=O)N[C@H](C(=O)N1C[C@H](O)C[C@H]1C(=O)NCc1ccc(-c2scnc2C)cc1)C(C)(C)C` [PROTAC 3], the “degradation of L858R EGFR (immunoblot)” value on L858R EGFR was “enabled the degradation”. Further, at WT EGFR, the “EGFR degradation (immunoblot)” value is listed as “sparing the WT EGFR”. Moreover, the “degradation of exon-19 deletion EGFR (immunoblot)” value at exon-19 deletion EGFR is given as “enabled the degradation”.
For orientation: pIC50 means the negative decadic logarithm of the IC50, by convention in mol/L. Lower therefore signals a large IC50. On to `COc1cc2c(Oc3ccc(N(C(=O)C4(C(N)=O)CC4)c4ccc(F)cc4)cc3F)ccnc2cc1OCCCOCCCOCCC(=O)N[C@H](C(=O)N1C[C@@H](O)C[C@H]1C(=O)NCc1ccc(-c2scnc2C)cc1)C(C)(C)C` (single isomer, unassigned) [diastereomer 8], for which, in the test on AKT phosphorylation, the “fold higher concentration than PROTAC 7 required to completely inhibit agonist-driven AKT phosphorylation” value is “approximately 10 fold”. Besides, the pIC50 with GTL16 cells is 6.81.
